Reference: patent publication US20240002404A1, “SALT OF PYRROLOPYRIMIDINE COMPOUND, CRYSTALLINE FORM THEREOF, AND APPLICATION THEREOF” (GUANGZHOU JOYO PHARMATECH CO., LTD, priority 2020, published 2024)
Structures can show the parent of a compound that is named as a salt. Where two headings read alike, the source gives them in different places. One block for each compound: values may come before it.

Tests used:
[1] = Dynamic solubility evaluation in water and biological menstruums; assay type: physicochemical; conditions: for pH: solubility sample
Description: The dynamic solubility of the crystal form B of the sulfate, the crystal form A of the maleate and the crystal form C of the hydrochloride in water and three biological menstruums was evaluated.

in vitro = conditions: human, Caco-2, pH 7.4
Description: The transport buffer solution was HBSS (Hanks' balanced salt solution) and 10 mM HEPES [N-(2-hydroxyethyl)piperazine-N-(2-ethanesulfonic acid) solution], with a pH value of 7.40±0.05; Caco-2 cells were purchased from ATCC.
Caco-2 cells were seeded at 1×10^5 cells/cm^2 in 96-well BD insert plates of polyethylene terephthalate (PET), and the medium was refreshed every 4-5 days until day 21-28 to form a confluent monolayer. Test compounds were tested in a two-way format at 2 μM in duplicate. Digoxin was added at 10 μM in the two-way format, and nadolol and metoprolol were added at 2 μM in the two-way format. Final concentration of DMSO was adjusted to less than 1%. The plates were incubated in a CO2 incubator at 37±1° C. for 2 h with 5% CO2 at saturated humidity without shaking. All samples were mixed with acetonitrile containing an internal standard, and centrifuged at 4000 rpm for 10 min. 100 microliters of supernatant was diluted with 100 microliters of distilled water for LC/MS/MS analysis. By LC/MS/MS analysis, the concentrations of the test compounds and the reference compound in the initial test article solution, the test article solution and the test compound solution using the peak area ratio of the analyte to the internal standard. After the transport test, the integrity of the Caco-2 cell monolayer was determined by fluorescein yellow exclusion reaction, and the apparent permeability coefficient and efflux ratio were calculated.

[2] = Hygroscopicity evaluation by DVS; assay type: physicochemical; conditions: 25° C./80% RH, listed as crystal form B of the sulfate
Description: The hygroscopicity of the crystal form B of the sulfate, the crystal form A of the maleate and the crystal form C of the hydrochloride was evaluated by DVS. The water adsorption (second adsorption curve) of the three salt forms at 25° C./80% RH is 7.62%, 1.35% and 4.77% respectively.

[3] = Solid state stability (HPLC purity after storage); assay type: physicochemical
Description: The chemical stability of the samples was determined by HPLC after placing the crystal form B of the sulfate, the crystal form A of the maleate and the crystal form C of the hydrochloride at 25° C./60% RH and 40° C./75% RH for 1 week, respectively. For the maleate, additional stability data for one month and two months storage at 25° C./60% RH and 40° C./75% RH (open) were collected, and using the crystal form A of maleate as the starting sample, stability data for 24 hours storage at 60° C. (closed) were collected.

[4] = FaSSIF, 1 hour, 37° C., feeding 10 mg/mL
[5] = FaSSIF, 2 hours, 37° C., feeding 10 mg/mL
[6] = FaSSIF, 4 hours, 37° C., feeding 10 mg/mL
[7] = FaSSIF, 24 hours, 37° C., feeding 10 mg/mL
[8] = FeSSIF, 1 hour, 37° C., feeding 10 mg/mL
[9] = FeSSIF, 2 hours, 37° C., feeding 10 mg/mL
[10] = FeSSIF, 4 hours, 37° C., feeding 10 mg/mL
[11] = FeSSIF, 24 hours, 37° C., feeding 10 mg/mL
[12] = H2O, 1 hour, 37° C., feeding 10 mg/mL
[13] = H2O, 2 hours, 37° C., feeding 10 mg/mL
[14] = H2O, 4 hours, 37° C., feeding 10 mg/mL
[15] = H2O, 24 hours, 37° C., feeding 10 mg/mL
[16] = SGF, 1 hour, 37° C., feeding 10 mg/mL
[17] = SGF, 2 hours, 37° C., feeding 10 mg/mL
[18] = SGF, 4 hours, 37° C., feeding 10 mg/mL
[19] = SGF, 24 hours, 37° C., feeding 10 mg/mL

Structure (SMILES): CN(c1ncnc2[nH]ccc12)[C@@H]1CCc2cc(C#N)nn2C1 [Crystal form C of hydrochloride]
- S: solubility [1, 4]: 670 µg/mL
- S: solubility [1, 5]: 640 µg/mL
- S: solubility [1, 6]: 590 µg/mL
- S: solubility [1, 7]: 490 µg/mL
- S: solubility [1, 8]: 20 µg/mL
- S: solubility [1, 9]: 20 µg/mL
- S: solubility [1, 10]: 20 µg/mL
- S: solubility [1, 11]: 10 µg/mL
- S: solubility [1, 12]: 2700 µg/mL
- S: solubility [1, 13]: 2400 µg/mL
- S: solubility [1, 14]: 2300 µg/mL
- S: solubility [1, 15]: 2000 µg/mL
- S: solubility [1, 16]: 5600 µg/mL
- S: solubility [1, 17]: 5300 µg/mL
- S: solubility [1, 18]: 5100 µg/mL
- S: solubility [1, 19]: 4300 µg/mL

Structure (SMILES): C[C@H]1O[C@@H](O[C@H]2[C@@H](O)C[C@H](O[C@H]3[C@@H](O)C[C@H](O[C@H]4CC[C@@]5(C)[C@H](CC[C@@H]6[C@@H]5C[C@@H](O)[C@]5(C)[C@@H](C7=CC(=O)OC7)CC[C@]65O)C4)O[C@@H]3C)O[C@@H]2C)C[C@H](O)[C@@H]1O [Digoxin]
- Papp A→B at 2 h, 2 μM (in vitro): 0.04 ×10⁻⁶ cm/s
- Papp B→A at 2 h, 2 μM (in vitro): 13.9 ×10⁻⁶ cm/s
- efflux ratio at 2 h, 2 μM (in vitro): 349

Structure (SMILES): COCCc1ccc(OCC(O)CNC(C)C)cc1 (centres unmarked) [Metoprolol]
- Papp A→B at 2 h, 2 μM (in vitro): 18.1 ×10⁻⁶ cm/s

The next lines start with the values.

- S: solubility [1, 4]: 980 µg/mL
- S: solubility [1, 5]: 960 µg/mL
- S: solubility [1, 6]: 980 µg/mL
- S: solubility [1, 7]: 770 µg/mL
- S: solubility [1, 8]: 60 µg/mL
- S: solubility [1, 9]: 50 µg/mL
- S: solubility [1, 10]: 50 µg/mL
- S: solubility [1, 11]: 30 µg/mL
- S: solubility [1, 15]: 1700 µg/mL
- solubility at 1 h ([1]; SGF, 37 °C, simulated gastric fluid, thermodynamic from solid, SGF, 1 hour, 37° C., feeding 10 mg/mL, read-out: S: solubility): 6800 µg/mL
- solubility at 2 h ([1]; SGF, 37 °C, simulated gastric fluid, thermodynamic from solid, SGF, 2 hours, 37° C., feeding 10 mg/mL, read-out: S: solubility): 6400 µg/mL
- solubility at 4 h ([1]; SGF, 37 °C, simulated gastric fluid, thermodynamic from solid, SGF, 4 hours, 37° C., feeding 10 mg/mL, read-out: S: solubility): 6600 µg/mL
- solubility at 24 h ([1]; SGF, 37 °C, simulated gastric fluid, thermodynamic from solid, SGF, 24 hours, 37° C., feeding 10 mg/mL, read-out: S: solubility): 3900 µg/mL
- solubility at 1 h ([1]; water, 37 °C, water, thermodynamic from solid, H2O, 1 hour, 37° C., feeding 10 mg/mL, read-out: S: solubility): 2900 µg/mL
- solubility at 2 h ([1]; water, 37 °C, water, thermodynamic from solid, H2O, 2 hours, 37° C., feeding 10 mg/mL, read-out: S: solubility): 2800 µg/mL
- solubility at 4 h ([1]; water, 37 °C, water, thermodynamic from solid, H2O, 4 hours, 37° C., feeding 10 mg/mL, read-out: S: solubility): 2700 µg/mL
Structure (SMILES): CN(c1ncnc2[nH]ccc12)[C@@H]1CCc2cc(C#N)nn2C1 [Crystal form A of maleate]

- water adsorption (second adsorption curve) [2]: 7.62%
- S: solubility [1, 4]: 3400 µg/mL
- S: solubility [1, 5]: 3400 µg/mL
- S: solubility [1, 6]: 3300 µg/mL
- S: solubility [1, 7]: 2600 µg/mL
- S: solubility [1, 8]: 70 µg/mL
- S: solubility [1, 9]: 70 µg/mL
- S: solubility [1, 10]: 60 µg/mL
- S: solubility [1, 11]: 50 µg/mL
- S: solubility [1, 12]: 3700 µg/mL
- S: solubility [1, 13]: 3800 µg/mL
- S: solubility [1, 14]: 3700 µg/mL
- S: solubility [1, 15]: 4000 µg/mL
- S: solubility [1, 16]: 5300 µg/mL
- S: solubility [1, 17]: 5000 µg/mL
- S: solubility [1, 18]: 4800 µg/mL
- S: solubility [1, 19]: 5300 µg/mL
- pH ([1]; FaSSIF, 1 hour): 2.7
- pH ([1]; FaSSIF, 2 hours): 2.6
- pH ([1]; FaSSIF, 4 hours): 2.7
- pH ([1]; FaSSIF, 24 hours): 2.4
- pH ([1]; FeSSIF, 1 hour): 4.3
- pH ([1]; FeSSIF, 2 hours): 4.3
- pH ([1]; FeSSIF, 4 hours): 4.3
- pH ([1]; FeSSIF, 24 hours): 4.4
- pH ([1]; H2O, 1 hour): 2.0
- pH ([1]; H2O, 2 hours): 2.2
- pH ([1]; H2O, 4 hours): 2.1
- pH ([1]; H2O, 24 hours): 1.9
- pH ([1]; SGF, 1 hour): 1.7
- pH ([1]; SGF, 2 hours): 1.8
- pH ([1]; SGF, 4 hours): 1.8
- pH ([1]; SGF, 24 hours): 1.6
- Purity (area %) ([3]; 25° C./60% RH, 1 week): 97.98 area %
- Purity/Initial Purity (%) ([3]; 25° C./60% RH, 1 week): 99.57%
- Purity (area %) ([3]; 40° C./75% RH, 1 week): 98.06 area %
- Purity/Initial Purity (%) ([3]; 40° C./75% RH, 1 week): 99.65%
- Purity (area %) ([3]; Initial): 98.40 area %
Structure (SMILES): CN(c1ncnc2[nH]ccc12)[C@@H]1CCc2cc(C#N)nn2C1 [Crystal form B of sulfate]
